# Results as given in patent publication US20240148744A1 (Celgene Corporation, priority 2021, published 2024).
# Tested on: Onchocerca gutturosa adult male worms
# Test: Onchocerca gutturosa in vitro screening model: adult worm motility score and MTT/formazan viability
# Assay type: cell-based
# Conditions: read-out: O. gutt Activity class
row,Compound,IC50 [nM]
1,"Cc1cccnc1S(=O)(=O)Nc1cccc2c(F)ccnc12 [Compound 12, N-(4-fluoro-quinolin-8-yl)-3-methylpyr-idine-2-sulfonamide]",200 to 500
2,"Cc1cccnc1S(=O)(=O)Nc1cccc2c(OC(C)C)ccnc12 [Compound 19, N-(4-iso-propoxyquin-olin-8-yl)-3-methylpyr-idine-2-sulfonamide]",500 to 5000
3,"Cc1cccnc1S(=O)(=O)Nc1cccc2ncc(N3CCC3)cc12 [Compound 20, N-(3-(azet-idin-1-yl)-quinolin-5-yl)-3-meth-ylpyridine-2-sulfonamide]",200 to 500
4,"Cc1cccnc1S(=O)(=O)Nc1cccc2ccc(-c3ccccc3)nc12 [Compound 22, 3-methyl-N-(2-phenyl-quinolin-8-yl)pyridine-2-sulfonamide]",500 to 5000
5,"Cc1cccnc1S(=O)(=O)Nc1cccc2ccc(N3CCC3)nc12 [Compound 23, N-(2-(azet-idin-1-yl)-quinolin-8-yl)-3-meth-ylpyridine-2-sulfonamide]",500 to 5000
6,"Cc1cccnc1S(=O)(=O)Nc1cccc2ncc(N3CCOCC3)cc12 [Compound 24, 3-methyl-N-(3-morpho-linoquinolin-5-yl)pyridine-2-sulfonamide]",500 to 5000
7,"CC(C)n1ccnc1S(=O)(=O)Nc1cccc2c1CN(C1CC1)C2 [Compound 33, N-(2-cyclo-propyliso-indolin-4-yl)-1-isopropyl-1H-imidazole-2-sulfonamide]",200 to 500
8,"Cc1cccnc1S(=O)(=O)Nc1cccc2c1CN(C1CC1)CC2 [Compound 36, N-(2-cyclo-propyl-1,2,3,4-tetra-hydroisoquin-olin-8-yl)-3-methylpyr-idine-2-sulfonamide]",500 to 5000
9,"CN1CCc2cccc(NS(=O)(=O)c3ncccc3C3CC3)c2C1 [Compound 37, 3-cyclo-propyl-N-(2-methyl-1,2,3,4-tetra-hydroisoquin-olin-8-yl)pyr-idine-2-sulfonamide]",200 to 500
10,"Cc1cccnc1S(=O)(=O)Nc1cccc2c1N(C1CC1)CCC2 [Compound 38, N-(1-cyclo-propyl-1,2,3,4-tetra-hydroquin-olin-8-yl)-3-methylpyr-idine-2-sulfonamide]",500 to 5000
11,"CC(C)n1nccc1S(=O)(=O)Nc1cccc2c1CN(C1CC1)C2 [Compound 40, N-(2-cyclo-propyliso-indolin-4-yl)-1-isopropyl-1H-pyrazole-5-sulfonamide]",500 to 5000
12,"Cc1cccnc1S(=O)(=O)Nc1cccc2c1CN(C1CC1)C2 [Compound 41, N-(2-cyclo-propyliso-indolin-4-yl)-3-methylpyr-idine-2-sulfonamide]",500 to 5000
13,"Cc1cccnc1S(=O)(=O)Nc1cccc2c1CN(C)CC2 [Compound 43, 3-methyl-N-(2-methyl-1,2,3,4-tetra-hydroisoquin-olin-8-yl)pyr-idine-2-sulfonamide]",< 200
14,"Cc1cccnc1S(=O)(=O)Nc1cccc2c1N(C)CC2 [Compound 44, 3-methyl-N-(1-methyl-indolin-7-yl)-pyridine-2-sulfonamide]",500 to 5000
15,"O=S(=O)(Nc1cccc2c1NCCC2)c1ncccc1F [Compound 46, 3-fluoro-N-(1,2,3,4-tetra-hydroquin-olin-8-yl)-pyridine-2-sulfonamide]",500 to 5000
16,"CN(C)c1cccnc1S(=O)(=O)Nc1cccc2c1CN(C1CC1)C2 [Compound 47, N-(2-cyclo-propyliso-indolin-4-yl)-3-(dimethyl-amino)pyr-idine-2-sulfonamide]",500 to 5000
17,"CN(C)c1cnc(S(=O)(=O)Nc2c(Cl)ccc3cccnc23)cn1 [Compound 49, N-(7-chloro-quinolin-8-yl)-5-(dimeth-ylamino)pyr-azine-2-sulfonamide]",500 to 5000
18,"CN(C)c1cncc(S(=O)(=O)Nc2c(Cl)ccc3cccnc23)n1 [Compound 50, N-(7-chloro-quinolin-8-yl)-6-(dimeth-ylamino)pyr-azine-2-sulfonamide]",500 to 5000

row,Compound,IC50 [nM]
1,"Cc1cccnc1S(=O)(=O)Nc1cccc2c1CN(C)C2 [Compound 51, 3-methyl-N-(2-methyl-isoindolin-4-yl)pyridine-2-sulfonamide]",< 200
2,"Cc1cccnc1S(=O)(=O)Nc1cccc2c1NCCC2 [Compound 56, 3-methyl-N-(1,2,3,4-tetra-hydroquinolin-8-yl)pyridine-2-sulfonamide]",500 to 5000
3,"CCn1ccnc1S(=O)(=O)Nc1ccc(OC)c2cccnc12 [Compound 57, 1-ethyl-N-(5-methoxyquin-olin-8-yl)-1H-imidazole-2-sulfonamide]",500 to 5000
4,"Cn1cc(S(=O)(=O)Nc2ccc(F)c3cccnc23)cn1 [Compound 59, N-(5-fluoro-quinolin-8-yl)-1-meth-yl-1H-pyr-azole-4-sulfonamide]",500 to 5000
5,"COc1ccc(NS(=O)(=O)c2ccco2)c2ncccc12 [Compound 60, N-(5-meth-oxyquinolin-8-yl)furan-2-sulfonamide]",500 to 5000
6,"O=S(=O)(Nc1ccc(N2CCOCC2)c2cccnc12)c1ccco1 [Compound 61, N-(5-morph-olinoquin-olin-8-yl)-furan-2-sulfonamide]",500 to 5000
7,"O=S(=O)(Nc1ccc(N2CCOCC2)c2cccnc12)c1cn[nH]c1 [Compound 62, N-(5-morph-olinoquin-olin-8-yl)-1H-pyrazole-4-sulfonamide]",500 to 5000
8,"O=S(=O)(Nc1ccc(F)c2cccnc12)c1cn[nH]c1 [Compound 63, N-(5-fluoro-quinolin-8-yl)-1H-pyrazole-4-sulfonamide]",500 to 5000
9,"O=S(=O)(Nc1ccc(F)c2cccnc12)c1ccco1 [Compound 64, N-(5-fluoro-quinolin-8-yl)furan-2-sulfonamide]",< 200
10,"Cc1ccc(NS(=O)(=O)c2ccco2)c2ncccc12 [Compound 65, N-(5-methyl-quinolin-8-yl)furan-2-sulfonamide]",500 to 5000
11,"O=S(=O)(Nc1c(Cl)ccc2cccnc12)c1ncccc1C1CC1 [Compound 69, N-(7-chloro-quinolin-8-yl)-3-cyclo-propylpyr-idine-2-sulfonamide]",< 200
12,"Cc1nccnc1S(=O)(=O)Nc1c(Cl)ccc2cccnc12 [Compound 70, N-(7-chloro-quinolin-8-yl)-3-methyl-pyrazine-2-sulfonamide]",500 to 5000
13,"N#Cc1ccnc(S(=O)(=O)Nc2c(Cl)ccc3cccnc23)c1 [Compound 71, N-(7-chloro-quinolin-8-yl)-4-cyano-pyridine-2-sulfonamide]",< 200
14,"O=S(=O)(Nc1c(Cl)ccc2cccnc12)c1cncc(N2CCCC2)n1 [Compound 74, N-(7-chloro-quinolin-8-yl)-6-(pyrrol-idin-1-yl)pyr-azine-2-sulfonamide]",200 to 500
15,"COc1cnc(S(=O)(=O)Nc2c(Cl)ccc3cccnc23)cn1 [Compound 78, N-(7-chloro-quinolin-8-yl)-5-meth-oxypyrazine-2-sulfonamide]",500 to 5000
16,"CC(C)n1nccc1S(=O)(=O)Nc1cccc2c(Cl)ccnc12 [Compound 79, N-(4-chloro-quinolin-8-yl)-1-iso-propyl-1H-pyrazole-5-sulfonamide]",< 200
17,"COc1cncc(S(=O)(=O)Nc2c(Cl)ccc3cccnc23)n1 [Compound 81, N-(7-chloro-quinolin-8-yl)-6-meth-oxypyrazine-2-sulfonamide]",500 to 5000
18,"N#Cc1cccc(S(=O)(=O)Nc2c(Cl)ccc3cccnc23)c1 [Compound 82, N-(7-chloro-quinolin-8-yl)-3-cyano-benzene sulfonamide]",500 to 5000
